{
  "source": "paper PMC11501026",
  "about": "“L-Arginine and asymmetric dimethylarginine (ADMA) transport across the mouse blood-brain and blood-CSF barriers: Evidence of saturable transport at both interfaces and CNS to blood efflux” (PLOS ONE, 2024)",
  "test": "capillary depletion analysis after in situ brain perfusion",
  "format": "in vivo, mouse",
  "parameters": "[3H] ADMA and [14C] Sucrose uptake, homogenate / Difference (ADMA minus Sucrose), homogenate / [3H] ADMA and [14C] Sucrose uptake, supernatant / Difference (ADMA minus Sucrose), supernatant / uptake, homogenate / uptake, supernatant: unit not given here",
  "details": "5ml/min; for Kp at 20 min, 62.5 nM / Kp at […] / Kp at 30 min, 62.5 nM / Kp at 10 min, 62.5 nM: male, BALB/c, mouse; for Kp at 30 min, 62.5 nM / Kp at 10 min, 62.5 nM: other: in situ brain perfusion",
  "description": "The microvasculature within a sample of brain tissue can be separated from the brain parenchyma using capillary depletion analysis. Following perfusion, the remaining brain tissue after microdissection of the regions described above (typically 200–300 mg) underwent capillary depletion following a method modified for mouse. […]",
  "key": {"[1]": {"details": "2.5 mins, Balb/c ♂, individual mouse"}, "[2]": {"details": "20 mins, Balb/c ♂, individual mouse"}, "[3]": {"details": "30 mins, Balb/c ♂, individual mice"}, "[4]": {"details": "CONTROL, 10 mins, Balb/c ♂, individual mouse"}, "[5]": {"details": "[3H] ADMA + [14C] Sucrose, 30 mins, Balb/c ♂, individual mice"}},
  "note": "Several values for one entry are separate records, joined by “and”; a condition that tells them apart may be missing. Equal values may be shown once. Where a name gives a salt, the structure may show the parent alone. Read-outs that look alike come from different tables or passages of the source.",
  "data": [
    {"smiles": "CN(C)C(N)=NCCC[C@H](N)C(=O)O", "note": "[ADMA, N^G,N^G-dimethylarginine dihydrochloride]", "values": [
      {"measurement": "Difference (ADMA minus Sucrose), homogenate", "setting": "[1]", "result": "0.08009 and 0.1215 and 0.06334 and 0.05481 and 0.07702"},
      {"measurement": "Difference (ADMA minus Sucrose), pellet", "setting": "[1]", "result": "0.01248 and 0.007546 and 0.01055 and 0.0124"},
      {"measurement": "Difference (ADMA minus Sucrose), supernatant", "setting": "[1]", "result": "0.05051 and 0.03514 and 0.04142 and 0.05329"},
      {"measurement": "[3H] ADMA and [14C] Sucrose uptake, homogenate", "setting": "[1]", "result": "0.09289 and 0.1482 and 0.07368 and 0.06461 and 0.09146"},
      {"measurement": "[3H] ADMA and [14C] Sucrose uptake, pellet", "setting": "[1]", "result": "0.01492 and 0.009191 and 0.01385 and 0.01522"},
      {"measurement": "[3H] ADMA and [14C] Sucrose uptake, supernatant", "setting": "[1]", "result": "0.06123 and 0.0402 and 0.05083 and 0.0645"},
      {"measurement": "Difference (ADMA minus Sucrose), homogenate", "setting": "[2]", "result": "0.2153 and 0.186 and 0.3039 and 0.2292 and 0.1075"},
      {"measurement": "Difference (ADMA minus Sucrose), pellet", "setting": "[2]", "result": "0.01581 and 0.02784 and 0.03159 and 0.04237 and 0.006518"},
      {"measurement": "Difference (ADMA minus Sucrose), supernatant", "setting": "[2]", "result": "0.1074 and 0.1722 and 0.2036 and 0.1573 and 0.05863"},
      {"measurement": "[3H] ADMA and [14C] Sucrose uptake, homogenate", "setting": "[2]", "result": "0.2383 and 0.2004 and 0.3388 and 0.2498 and 0.142"},
      {"measurement": "[3H] ADMA and [14C] Sucrose uptake, pellet", "setting": "[2]", "result": "0.01706 and 0.03 and 0.03434 and 0.04519 and 0.01122"},
      {"measurement": "[3H] ADMA and [14C] Sucrose uptake, supernatant", "setting": "[2]", "result": "0.1162 and 0.1882 and 0.2293 and 0.1698 and 0.07807"},
      {"measurement": "Difference (ADMA minus Sucrose), homogenate", "setting": "[3]", "result": "0.07039 and 0.3122 and 0.07479 and 0.04539 and 0.1073"},
      {"measurement": "Difference (ADMA minus Sucrose), pellet", "setting": "[3]", "result": "0.01163 and 0.01136 and 0.007805 and 0.01411"},
      {"measurement": "Difference (ADMA minus Sucrose), supernatant", "setting": "[3]", "result": "0.1199 and 0.1088 and 0.02622 and 0.04075 and 0.06521"},
      {"measurement": "Difference (ADMA minus Sucrose), homogenate", "setting": "[4]", "result": "0.2688 and 0.161 and 0.1425 and -0.07309"},
      {"measurement": "Difference (ADMA minus Sucrose), pellet", "setting": "[4]", "result": "0.02507 and 0.05085 and 0.009734 and 0.01917 and -0.0657"},
      {"measurement": "Difference (ADMA minus Sucrose), supernatant", "setting": "[4]", "result": "0.07602 and 0.1167 and 0.08919 and 0.1193 and 0.02984"},
      {"measurement": "[3H] ADMA and [14C] Sucrose uptake, homogenate", "setting": "[4]", "result": "0.1657 and 0.3684 and 0.1901 and 0.1639 and 0.2325"},
      {"measurement": "[3H] ADMA and [14C] Sucrose uptake, pellet", "setting": "[4]", "result": "0.02884 and 0.07512 and 0.03345 and 0.03555 and 0.0904"},
      {"measurement": "[3H] ADMA and [14C] Sucrose uptake, supernatant", "setting": "[4]", "result": "0.1611 and 0.1028 and 0.139 and 0.1685"},
      {"measurement": "uptake, homogenate", "setting": "[5]", "result": "0.08533 and 0.3484 and 0.1186 and 0.07545 and 0.1502"},
      {"measurement": "uptake, pellet", "setting": "[5]", "result": "0.01575 and 0.016 and 0.01288 and 0.01992"},
      {"measurement": "uptake, supernatant", "setting": "[5]", "result": "0.135 and 0.1332 and 0.05406 and 0.0758 and 0.09832"},
      {"measurement": "Kp at 20 min, 62.5 nM", "setting": "capillary depletion pellet (endothelial cell-enriched), Difference (ADMA minus Sucrose), pellet, 20 mins, mean", "result": 0.0248},
      {"measurement": "Kp at 20 min, 62.5 nM", "setting": "capillary depletion pellet (endothelial cell-enriched), [3H] ADMA and [14C] Sucrose uptake, pellet, 20 mins, mean", "result": 0.0276},
      {"measurement": "Kp at […]", "setting": "capillary depletion supernatant (brain parenchyma), Difference (ADMA minus Sucrose), supernatant, 2.5 mins, individual mouse", "result": 0.0611},
      {"measurement": "Kp at […]", "setting": "capillary depletion supernatant (brain parenchyma), Difference (ADMA minus Sucrose), supernatant, 2.5 mins, mean", "result": 0.0483},
      {"measurement": "Kp at 20 min, 62.5 nM", "setting": "capillary depletion supernatant (brain parenchyma), Difference (ADMA minus Sucrose), supernatant, 20 mins, mean", "result": 0.14},
      {"measurement": "Kp at […]", "setting": "capillary depletion supernatant (brain parenchyma), [3H] ADMA and [14C] Sucrose uptake, supernatant, 2.5 mins, individual mouse", "result": 0.0737},
      {"measurement": "Kp at […]", "setting": "capillary depletion supernatant (brain parenchyma), [3H] ADMA and [14C] Sucrose uptake, supernatant, 2.5 mins, mean", "result": 0.0581},
      {"measurement": "Kp at 20 min, 62.5 nM", "setting": "capillary depletion supernatant (brain parenchyma), [3H] ADMA and [14C] Sucrose uptake, supernatant, 20 mins, mean", "result": 0.156},
      {"measurement": "Kp at 30 min, 62.5 nM", "setting": "capillary depletion supernatant (brain parenchyma), Difference (ADMA minus Sucrose), supernatant, 30 mins, Balb/c ♂, mean", "result": 0.0722},
      {"measurement": "Kp at 10 min, 62.5 nM", "setting": "capillary depletion supernatant (brain parenchyma), Difference (ADMA minus Sucrose), supernatant, CONTROL, 10 mins, Balb/c ♂, mean", "result": 0.0862},
      {"measurement": "Kp at 30 min, 62.5 nM", "setting": "capillary depletion supernatant (brain parenchyma), [3H] ADMA + [14C] Sucrose, 30 mins, Balb/c ♂, mean, read-out: uptake, supernatant", "result": 0.0993},
      {"measurement": "Kp at 10 min, 62.5 nM", "setting": "capillary depletion supernatant (brain parenchyma), [3H] ADMA and [14C] Sucrose uptake, supernatant, CONTROL, 10 mins, Balb/c ♂, individual mouse", "result": 0.119},
      {"measurement": "Kp at 10 min, 62.5 nM", "setting": "capillary depletion supernatant (brain parenchyma), [3H] ADMA and [14C] Sucrose uptake, supernatant, CONTROL, 10 mins, Balb/c ♂, mean", "result": 0.138},
      {"measurement": "Kp at […]", "setting": "endothelial cell-enriched pellet (capillary depletion), Difference (ADMA minus Sucrose), pellet, 2.5 mins, individual mouse", "result": 0.0108},
      {"measurement": "Kp at […]", "setting": "endothelial cell-enriched pellet (capillary depletion), Difference (ADMA minus Sucrose), pellet, 2.5 mins, mean", "result": 0.0108},
      {"measurement": "Kp at […]", "setting": "endothelial cell-enriched pellet (capillary depletion), [3H] ADMA and [14C] Sucrose uptake, pellet, 2.5 mins, individual mouse", "result": 0.0124},
      {"measurement": "Kp at […]", "setting": "endothelial cell-enriched pellet (capillary depletion), [3H] ADMA and [14C] Sucrose uptake, pellet, 2.5 mins, mean", "result": 0.0131},
      {"measurement": "Kp at 30 min, 62.5 nM", "setting": "endothelial cell-enriched pellet (capillary depletion), Difference (ADMA minus Sucrose), pellet, 30 mins, Balb/c ♂, individual mice", "result": 0.0153},
      {"measurement": "Kp at 30 min, 62.5 nM", "setting": "endothelial cell-enriched pellet (capillary depletion), Difference (ADMA minus Sucrose), pellet, 30 mins, Balb/c ♂, mean", "result": 0.012}
    ]}
  ]
}
